# Experimental data published in US20220331322A1, “COMPOUND FOR INHIBITING CELL DEATH” (Christian-Albrechts-Universität zu Kiel, priority 2019, published 2022).
# Where a SMILES comes first, the peptide text is derived from it. The star is where a group is joined. Cbz = O=C(OCc1ccccc1)*; CH2F = FC*
# Key:
# L929 cells [1] = assay: TZ-induced RIPK1-dependent necroptosis, metabolites; type: cell-based, murine; conditions: L929, 10 ng/ml TNF-α + 25 μM zVAD, 24 h; 1 mM PEMA or PB
# Procedure: Murine fibroblasts (L929 cells) were incubated for 24 h at 37° C. in the presence of (a) vehicle, (b) 1 mM PEMA or PB, respectively, (c) a combination of 10 ng/ml TNF-α+25 μM zVAD (TZ), and (d) a combination of TZ+PEMA or TZ+PB, respectively.
# L929 cells [2] = assay: Stimulation assay: TNF-α + 5Z-7 (± zVAD) induced RIPK1-dependent apoptosis/necroptosis; type: cell-based, murine; conditions: primidone 1 mM, Nec-1s 20 μM; for Block of RIPK1-dependent apoptosis (RDA): L929, 10 ng/ml TNF-α + 1 μM 5Z-7, 24 h, zVAD 25 μM
# Procedure: Murine fibroblasts (L929 cells) were stimulated for 24 h at 37° C. in the presence of (a) vehicle, (b) 10 ng/ml tumor necrosis factor alpha (TNF-α), (c) 1 μM 5Z-7-oxozeaenol (5Z-7), (d) a combination of 10 ng/ml TNF-α and 1 μM 5Z-7, (e) a combination of 10 ng/ml TNF-α, 1 μM 5Z-7, and 20 μM necrostatin-1 (Nec-1s), (f) a combination of 10 ng/ml TNF-α, 1 μM 5Z-7, and 1 mM primidone (primidone is referred to in the Figures as compound A), (g) a combination of 10 ng/ml TNF-α, 1 μM 5Z-7, and 25 μM zVAD, (h) a combination of 10 ng/ml TNF-α, 1 μM 5Z-7, and 20 μM Nec-1s, and (i) a combination of 10 ng/ml TNF-α, 1 μM 5Z-7, 25 μM zVAD, and 1 mM primidone. TNF-α is a pro-inflammatory cytokine which triggers cell survival (canonical pathway) or cell death, depending on the cellular context. 5Z-7-oxozeaenol (5Z-7) is an inhibitor of transforming growth factor activated kinase 1 (TAK1). TAK1 is an intermediate in the signaling pathway of the TNF-receptor type 1 (TNFR1), and it is known that TAK1 is essential for the prevention of TNF-induced cell death. Cells in which TAK1 is disrupted or otherwise blocked are hypersensitive to TNF-α-induced cell death due to diminished prosurvival pathways including NF-κB and reduced antioxidant enzymes which results in activation of caspases. The compound zVAD is a pan-caspase inhibitor.
# L929 cells [3] = assay: TLR3-mediated cell death induced by poly (I:C) + zVAD; type: cell-based, murine; conditions: L929, 1 μg/ml poly (I:C) + 25 μM zVAD, 24 h; primidone 1 mM, Nec-1s 20 μM
# Excerpt: Cell death was induced by activation of the Toll-like receptor 3 (TLR3). TLR3 is mainly expressed on immune cells, where it senses pathogen-associated molecular patterns and initiates innate immune response. The TLR3 agonist poly (I:C) was developed to mimic pathogens infection and boost immune system activation. In experimental models, poly (I:C) is known to induce regulated cell death in cells expressing TLR3. To examine whether primidone also blocks TLR3-mediated cell death, murine L929 cells were stimulated for 24 h at 37° C. with vehicle (a), 1 μg/ml of the TLR3 ligand poly (I:C) alone (b) or in combination with 25 μM zVAD (c). In addition, cells were stimulated with 1 μg/ml poly (I:C), 25 μM zVAD and 20 μM Nec-1s (d) and with 1 μg/ml poly (I:C), 25 μM zVAD and 1 mM primidone (e).
# L929 cells [4] = assay: Time profile of blocking TZ-induced necroptosis, FACS (7-AAD/Annexin V); type: cell-based, murine; conditions: L929, 10 ng/ml TNF-α + 25 μM zVAD (TZ), 24 h; primidone 1 mM, Nec-1s 25 μM; one representative experiment of three
# Procedure: The time profile of primidone for blocking cell death was compared to the one of Nec-1s. For this purpose, murine L929 cells were stimulated at 37° C. for 24 h with 10 ng/ml TNF-α+25 μM zVAD (TZ) in the presence of 1 mM primidone and 25 μM Nec-1s, respectively, for the indicated durations. Nec-1s and primidone were added 30 min before, 60 min and 180 min after the induction of RIPK1-mediated necroptosis, respectively. Cell death was quantified by FACS analysis using 7-amino-actinomycin D and phosphatidylserine accessibility (Annexin V staining) as markers.
# RIPK1 = target: T1, RIPK1 (Homo sapiens, UniProt Q13546); assay: KINOMEscan profiling kinase assay
# T1 sequence (Q13546 1-671): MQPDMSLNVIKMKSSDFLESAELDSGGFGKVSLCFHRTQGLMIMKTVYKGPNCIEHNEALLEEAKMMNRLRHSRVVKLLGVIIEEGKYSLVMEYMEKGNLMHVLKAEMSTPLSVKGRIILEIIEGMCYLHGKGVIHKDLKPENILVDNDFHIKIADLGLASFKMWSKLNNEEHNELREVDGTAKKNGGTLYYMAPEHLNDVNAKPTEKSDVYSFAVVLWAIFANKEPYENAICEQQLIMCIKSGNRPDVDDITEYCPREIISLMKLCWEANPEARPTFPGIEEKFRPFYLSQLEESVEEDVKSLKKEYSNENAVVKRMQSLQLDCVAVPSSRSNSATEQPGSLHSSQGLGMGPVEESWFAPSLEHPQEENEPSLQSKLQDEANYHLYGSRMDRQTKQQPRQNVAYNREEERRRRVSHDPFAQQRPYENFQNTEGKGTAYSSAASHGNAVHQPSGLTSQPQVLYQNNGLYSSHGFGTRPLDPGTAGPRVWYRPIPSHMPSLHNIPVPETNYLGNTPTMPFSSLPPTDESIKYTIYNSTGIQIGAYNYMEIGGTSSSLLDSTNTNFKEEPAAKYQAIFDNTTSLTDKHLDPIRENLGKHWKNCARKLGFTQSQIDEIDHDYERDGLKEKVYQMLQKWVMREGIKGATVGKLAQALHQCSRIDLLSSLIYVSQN
# Procedure: To clarify, a KINOMEscan™ profiling kinase assay was performed. […] Dissociation constants (Kd) for test compound-kinase interactions are calculated by measuring the amount of kinase captured on the solid support as a function of the test compound concentration.
# Jurkat cells = assay: Anti-Fas antibody induced RIPK1-independent apoptosis; type: cell-based, human; conditions: 5 ng/ml anti-Fas antibody, 5 h, zVAD 25 μM, primidone 1 mM
# Procedure: To this end, human T cells (Jurkat cells) were incubated for 5 h at 37° C. in the presence of (a) vehicle, (b) 5 ng/ml anti-Fas antibody, (c) 5 ng/ml anti-Fas antibody in combination with 25 μM of the pan-caspase inhibitor zVAD, and (d) 5 ng/ml anti-Fas antibody in combination with 1 mM primidone. The addition of the anti-Fas antibody induces apoptosis, a caspase-dependent form of regulated cell death that can be inhibited by the addition of the pan-caspase inhibitor zVAD.
compound,measurement,setting,value
"CCC1(c2ccccc2)C(=O)NC(=O)NC1=O [PB, 5-Ethyl-5-phenyl-1,3-diazinane-2,4,6-trione]",Block of TZ-induced RIPK1-dependent cell death (necroptosis),L929 cells [1],can be blocked
"CCC(C(N)=O)(C(N)=O)c1ccccc1 [PEMA, 2-Ethyl-2-phenylmalonamide]",Block of TZ-induced RIPK1-dependent cell death (necroptosis),L929 cells [1],can be blocked
CN1C(=O)NC(Cc2c[nH]c3c(Cl)cccc23)C1=O (stereo not shown) [Nec-1s],Block of RIPK1-dependent necroptosis,"L929 cells [2]; L929, 10 ng/ml TNF-α + 1 μM 5Z-7 + 25 μM zVAD, 24 h",prevents RIPK-1 dependent cell death
same,Block of RIPK1-dependent apoptosis (RDA),L929 cells [2],can be blocked
same,Protection from RIPK1-mediated cell death induced by poly (I:C) and zVAD,L929 cells [3],effectively protect cells
same,"Cells still alive, compound added 60 min after induction of cell death",L929 cells [4],85.0%
same,"Cells still alive, compound added 3 hours after induction of cell death",L929 cells [4],16.3%
same,Binding to RIPK1 kinase domain (prevention of kinase binding to immobilized ligand),RIPK1,prevents the kinase from binding to an immobilized ligand
CC(NC(=O)C(NC(=O)OCc1ccccc1)C(C)C)C(=O)NC(CC(=O)O)C(=O)CF (stereo not drawn) [zVAD] (Cbz-Val-Ala-Asp-CH2F; configuration not given here),Block of RIPK1-dependent apoptosis (RDA),L929 cells [2],cell death occurs
same,"Inhibition of anti-Fas antibody induced cell death (caspase-dependent, RIPK1-independent)",Jurkat cells,completely blocked
